Where a name gives a salt, the structure may show the parent alone.
Experiments:
[1] = target: T1, HCV polymerase (NS5B) type 1a (Hepatitis C virus genotype 1a, UniProt P26664); assay: Assay of enzyme (HCV polymerase) inhibitory activity, type 1a enzyme; format: biochemical, HCV type 1a (cloned from the blood of patients); conditions: HCV polymerase inhibitory activity (IC50), 1a, type 1a enzyme 1.5 μg/ml, 25° C., 60 min
T1 construct: made in house; host or cells: Escherichia coli (by the 'similar method' of the 1b enzyme)
Summary of the method: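 Patient-derived type 1a NS5B (C-terminal 47-aa deletion, His-tagged, E. coli-expressed) at 1.5 μg/ml was reacted with 5 μg/ml 3′UTR-containing substrate RNA, 50 μM ATP/GTP/CTP, 2 μM UTP plus [3H]UTP, pH 7.5, 25° C for 60 min. TCA-precipitated RNA radioactivity was counted; IC50 from ± compound.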

[2] = target: T2, HCV polymerase (NS5B) type 1b (Hepatitis C virus genotype 1b, UniProt P26663); assay: Assay of enzyme (HCV polymerase) inhibitory activity, type 1b enzyme; format: biochemical, HCV BK strain (type 1b); conditions: HCV polymerase inhibitory activity (IC50), 1b, type 1b enzyme 0.5 μg/ml, 25° C., 60 min
T2 construct: a region encoding NS5B (J Virol 1991 March, 65(3), 1105-13, 544 amino acids after deletion of 47 amino acids on the C-terminal); 6xHis (C); made in house; host or cells: Escherichia coli
Summary of the method: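 NS5B from HCV BK strain (type 1b), C-terminal 47 aa deleted, C-terminal His6-tagged, E. coli-expressed, 0.5 μg/ml, with ~450 nt substrate RNA carrying the 3′ UTR (polyU, 3′X) at 5 μg/ml. Incubation 60 min at 25 °C with 50 μM ATP/GTP/CTP, 2 μM UTP plus [3H]UTP, pH 7.5 Tris.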

| SMILES | IC50 [1] [nM] | IC50 [2] [nM] |
| --- | --- | --- |
| COC(=O)CCC(=O)NCC(=O)N1CCN(S(=O)(=O)c2ccc(C(F)(F)F)cc2)[C@@H](C(=O)NCc2ccc(C(C)C)cc2)C1 [Example 252, N-{2-[(R)-3-(4-isopropyl-benzylcarbamoyl)-4-(4-trifluoromethyl-benzenesulfonyl)-piperazin-1-yl]-2-oxo-ethyl}-succinamic acid methyl ester] | 100 to 1000 | 100 to 1000 |
| CC(=O)N1CCN(S(=O)(=O)c2ccc(C(C)C)cc2)[C@@H](C(=O)NCc2ccc(C(C)(C)C)cc2)C1 [Example 253, (R)-4-acetyl-1-(4-isopropyl-benzenesulfonyl)-piperazine-2-carboxylic acid 4-tert-butyl-benzylamide] | < 100 | < 100 |
| COC(=O)c1sc(N2CCN(S(=O)(=O)c3ccc(C(F)(F)F)cc3)[C@@H](C(=O)NCc3ccc(C(C)C)cc3)C2)nc1C [Example 254, 2-[(R)-3-(4-isopropyl-benzylcarbamoyl)-4-(4-trifluoromethyl-benzenesulfonyl)-piperazin-1-yl]-4-methyl-thiazole-5-carboxylic acid methyl ester] | 100 to 1000 | < 100 |
| COC(=O)Cc1csc(N2CCN(S(=O)(=O)c3ccc(C(F)(F)F)cc3)[C@@H](C(=O)NCc3ccc(C(C)C)cc3)C2)n1 [Example 255, {2-[(R)-3-(4-isopropyl-benzylcarbamoyl)-4-(4-trifluoromethyl-benzenesulfonyl)-piperazin-1-yl]-thiazol-4-yl}-acetic acid methyl ester] | < 100 | < 100 |
| CCOC(=O)COc1cccc(NC(=O)N2CCN(S(=O)(=O)c3ccc(C(F)(F)F)cc3)[C@@H](C(=O)NCc3ccc(C(C)C)cc3)C2)c1 [Example 256, (3-{[(R)-3-(4-isopropyl-benzylcarbamoyl)-4-(4-trifluoromethyl-benzenesulfonyl)-piperazine-1-carbonyl]-amino}-phenoxy)-acetic acid ethyl ester] | 100 to 1000 | 100 to 1000 |
| CC(C)c1ccc(CNC(=O)[C@H]2CN(C(=O)Cn3cnnn3)CCN2S(=O)(=O)c2ccc(C(F)(F)F)cc2)cc1 [Example 257, (R)-4-(2-tetrazol-1-yl-acetyl)-1-(4-trifluoromethyl-benzenesulfonyl)-piperazine-2-carboxylic acid 4-isopropyl-benzylamide] | < 100 | < 100 |
| CC(C)c1ccc(CNC(=O)[C@H]2CN(C(=O)CC#N)CCN2S(=O)(=O)c2ccc(C(F)(F)F)cc2)cc1 [Example 258, (R)-4-(2-cyano-acetyl)-1-(4-trifluoromethyl-benzenesulfonyl)-piperazine-2-carboxylic acid 4-isopropyl-benzylamide] | < 100 | < 100 |
| CC(C)c1ccc(CNC(=O)[C@H]2CN(c3nc(CC(=O)O)cs3)CCN2S(=O)(=O)c2ccc(C(F)(F)F)cc2)cc1 [Example 259, {2-[(R)-3-(4-isopropyl-benzylcarbamoyl)-4-(4-trifluoromethyl-benzenesulfonyl)-piperazin-1-yl]-thiazol-4-yl}-acetic acid] | 100 to 1000 | < 100 |
| CC(C)c1ccc(CNC(=O)[C@H]2CN(C(=O)Nc3cccc(OCC(=O)O)c3)CCN2S(=O)(=O)c2ccc(C(F)(F)F)cc2)cc1 [Example 260, (3-{[(R)-3-(4-isopropyl-benzylcarbamoyl)-4-(4-trifluoromethyl-benzenesulfonyl)-piperazine-1-carbonyl]-amino}-phenoxy)-acetic acid] | 100 to 1000 | 100 to 1000 |
| CC(C)c1ccc(CNC(=O)[C@H]2CN(C(=O)Cc3nnn[nH]3)CCN2S(=O)(=O)c2ccc(C(F)(F)F)cc2)cc1 [Example 261, (R)-4-(2-1H-tetrazol-5-yl-acetyl)-1-(4-trifluoromethyl-benzenesulfonyl)-piperazine-2-carboxylic acid 4-isopropyl-benzylamide] | > 1000 | 100 to 1000 |
| CN(C)c1ccc(CNC(=O)[C@H]2CN(C(=O)CN)CCN2S(=O)(=O)c2ccc(C(F)(F)F)cc2)cc1 [Example 262, (R)-4-(2-amino-acetyl)-1-(4-trifluoromethyl-benzenesulfonyl)-piperazine-2-carboxylic acid 4-dimethylamino-benzylamide dihydrochloride] | > 1000 | > 1000 |
| CC(=O)N1CCN(S(=O)(=O)c2cccc(C(F)(F)F)c2)[C@@H](C(=O)NCc2ccc(C(C)C)cc2)C1 [Example 263, (R)-4-acetyl-1-(3-trifluoromethyl-benzenesulfonyl)-piperazine-2-carboxylic acid 4-isopropyl-benzylamide] | 100 to 1000 | 100 to 1000 |
| CC(=O)N1CCN(S(=O)(=O)c2ccc3c(c2)CCCCC3)[C@@H](C(=O)NCc2ccc(C(C)C)cc2)C1 [Example 264, (R)-4-acetyl-1-(6,7,8,9-tetrahydro-5H-benzocycloheptene-2-sulfonyl)-piperazine-2-carboxylic acid 4-isopropyl-benzylamide] | < 100 | < 100 |
| CC(C)c1ccc(CNC(=O)[C@H]2CN(C(=O)NS(=O)(=O)c3ccccc3)CCN2S(=O)(=O)c2ccc(C(F)(F)F)cc2)cc1 [Example 265, (R)-4-benzenesulfonylaminocarbonyl-1-(4-trifluoromethyl-benzenesulfonyl)-piperazine-2-carboxylic acid 4-isopropyl-benzylamide] | > 1000 | > 1000 |
| COc1ccc(CC(=O)N2CCN(S(=O)(=O)c3ccc(C(F)(F)F)cc3)[C@@H](C(=O)NCc3ccc(C(C)C)cc3)C2)cc1 [Example 266, (R)-4-[2-(4-methoxy-phenyl)-acetyl]-1-(4-trifluoromethyl-benzenesulfonyl)-piperazine-2-carboxylic acid 4-isopropyl-benzylamide] | 100 to 1000 | 100 to 1000 |
| COc1ccccc1CC(=O)N1CCN(S(=O)(=O)c2ccc(C(F)(F)F)cc2)[C@@H](C(=O)NCc2ccc(C(C)C)cc2)C1 [Example 267, (R)-4-[2-(2-methoxy-phenyl)-acetyl]-1-(4-trifluoromethyl-benzenesulfonyl)-piperazine-2-carboxylic acid 4-isopropyl-benzylamide] | > 1000 | 100 to 1000 |
| COc1cccc(CC(=O)N2CCN(S(=O)(=O)c3ccc(C(F)(F)F)cc3)[C@@H](C(=O)NCc3ccc(C(C)C)cc3)C2)c1 [Example 268, (R)-4-[2-(3-methoxy-phenyl)-acetyl]-1-(4-trifluoromethyl-benzenesulfonyl)-piperazine-2-carboxylic acid 4-isopropyl-benzylamide] | > 1000 | 100 to 1000 |
| CC(C)c1ccc(CNC(=O)[C@H]2CN(C(=O)Nc3ccccc3Cl)CCN2S(=O)(=O)c2ccc(C(F)(F)F)cc2)cc1 [Example 269, (R)-4-(4-trifluoromethyl-benzenesulfonyl)-piperazine-1,3-dicarboxylic acid 1-[(2-chloro-phenyl)-amide] 3-(4-isopropyl-benzylamide)] | > 1000 | > 1000 |
| CC(C)c1ccc(CNC(=O)[C@H]2CN(C(=O)Nc3cccc(Cl)c3)CCN2S(=O)(=O)c2ccc(C(F)(F)F)cc2)cc1 [Example 270, (R)-4-(4-trifluoromethyl-benzenesulfonyl)-piperazine-1,3-dicarboxylic acid 1-[(3-chloro-phenyl)-amide] 3-(4-isopropyl-benzylamide)] | > 1000 | 100 to 1000 |

Source: patent US8017612B2, “Piperazine compound and use thereof as a HCV polymerase inhibitor” (priority 2006, dated 2011)
